We go through 8 molecules from patent publication US8563714B2, “Bridged spiro [2.4] heptane derivatives as ALX receptor and/or FPRL2 agonists” (Actelion Pharmaceuticals Ltd., priority 2009, dated 2013).

One experiment concerns the target T1, human ALX receptor (Homo sapiens, UniProt P25090).
T1 construct: expressed in transfected cells; host or cells: HEK293 (HEK293-hALXR-Gα16)
T1 sequence (P25090 1-351): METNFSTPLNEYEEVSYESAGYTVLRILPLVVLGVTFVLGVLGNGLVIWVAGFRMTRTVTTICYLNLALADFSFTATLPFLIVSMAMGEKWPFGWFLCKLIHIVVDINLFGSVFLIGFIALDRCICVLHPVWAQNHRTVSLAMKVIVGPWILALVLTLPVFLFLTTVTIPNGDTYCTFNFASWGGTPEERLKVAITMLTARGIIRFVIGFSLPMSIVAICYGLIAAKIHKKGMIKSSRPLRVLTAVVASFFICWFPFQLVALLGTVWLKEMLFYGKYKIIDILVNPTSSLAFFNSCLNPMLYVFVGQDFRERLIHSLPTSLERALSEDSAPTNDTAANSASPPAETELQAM
Briefly: Intracellular calcium measurements (FLIPR), agonistic activity in HEK293-hALXR-Gα16 cells. It is filed as cell-based. The conditions noted are these: Fluo-4 calcium FLIPR, normalized to WKYMVm 10 nM. The procedure, abridged: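 HEK293 cells expressing hALXR and Gα16 were loaded with 1 μM Fluo-4 AM and 20 mM HEPES for 60 min at 37°C, then exposed to serially diluted compound. FLIPR fluorescence was read at ex 488/em 540 nm. Baseline-subtracted peak responses were normalized to 10 nM WKYMVm.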
A general note: A change in cytosolic calcium serves as a functional read-out for many receptors and channels.

For another experiment, the target named is T2, human FPRL2 (Homo sapiens, UniProt P25089).
T2 construct: expressed in transfected cells; host or cells: HEK293 (HEK293-hFPRL2-Gα16)
T2 sequence (P25089 1-353): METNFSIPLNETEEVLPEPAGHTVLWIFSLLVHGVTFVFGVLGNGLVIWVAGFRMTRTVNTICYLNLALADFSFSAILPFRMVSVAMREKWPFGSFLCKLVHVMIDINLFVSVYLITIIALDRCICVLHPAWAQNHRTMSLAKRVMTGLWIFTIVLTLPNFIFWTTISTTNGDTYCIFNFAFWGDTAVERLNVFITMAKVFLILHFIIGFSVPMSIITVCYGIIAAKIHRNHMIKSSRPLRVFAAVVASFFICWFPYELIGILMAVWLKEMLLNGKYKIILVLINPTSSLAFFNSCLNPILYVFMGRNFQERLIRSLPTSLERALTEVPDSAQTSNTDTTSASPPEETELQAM
Briefly: Intracellular calcium measurements (FLIPR), agonistic activity in HEK293-hFPRL2-Gα16 cells. The experiment is classed as cell-based. The conditions noted are these: Fluo-4 calcium FLIPR, normalized to GLY14-Humanin 100 nM. The procedure, abridged:
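Peak values after baseline subtraction are expressed relative to 100 nM Gly14-Humanin; compounds diluted in assay buffer from 10 mM DMSO stocks.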

What is called EC50 is the concentration giving half of the maximal effect. Turning to `O=C(Nc1ncc(Br)s1)C1C(C(=O)NC2CCNC2)C2CCC1C21CC1` [Example 412, (5R)—N^5-(5-Bromothiazol-2-yl)-(6R)—N^6-(pyrrolidin-3-yl)-(4S,7R)-[4,7-ethylene-spiro[2.4]heptane]-5,6-dicarboxamide], the 50% effective concentration (EC50) is 8.9 nM at human ALX receptor and 1020 nM on human FPRL2.

For the molecule `CNCCNC(=O)[C@H]1[C@H](C(=O)Nc2ncc(Br)s2)[C@@H]2CC[C@H]1C21CC1` [Example 413, (5R)—N^5-(5-Bromothiazol-2-yl)-(6R)—N^6-(2-(N-methylamino)-ethyl)-(4S,7R)-[4,7-ethylene-spiro[2.4]heptane]-5,6-dicarboxamide], the figures for the EC50 on human ALX receptor and at human FPRL2 were 13 nM and 2110 nM, respectively.

Regarding `CNCCCNC(=O)[C@H]1[C@H](C(=O)Nc2ncc(Br)s2)[C@@H]2CC[C@H]1C21CC1` [Example 414, (5R)—N^5-(5-Bromothiazol-2-yl)-(6R)—N^6-(3-(N-methylamino)-propyl)-(4S,7R)-[4,7-ethylene-spiro[2.4]heptane]-5,6-dicarboxamide], the EC50 worked out at 14 nM on human ALX receptor and 773 nM on human FPRL2.

For the molecule `O=C(NC1CCCNC1)[C@H]1[C@H](C(=O)Nc2ncc(Br)s2)[C@@H]2CC[C@H]1C21CC1` (stereo partly drawn) [Example 415, (5R)—N^5-(5-Bromothiazol-2-yl)-(6R)—N^6-(piperidin-3-yl)-(4S,7R)-[4,7-ethylene-spiro[2.4]heptane]-5,6-dicarboxamide], the EC50 at human ALX receptor turned out to be 9.1 nM; on human FPRL2 it was 354 nM.

In the case of `O=C(NCC1CCCN1)[C@H]1[C@H](C(=O)Nc2ncc(Br)s2)[C@@H]2CC[C@H]1C21CC1` (stereo partly drawn) [Example 416, (5R)—N^5-(5-Bromothiazol-2-yl)-(6R)—N^6-[(pyrrolidin-2-yl)-methyl]-(4S,7R)-[4,7-ethylene-spiro[2.4]heptane]-5,6-dicarboxamide], the results for the EC50 on human ALX receptor and on human FPRL2 were 8.3 nM and 479 nM, respectively.

Regarding `O=C(NCC1CCCCN1)[C@H]1[C@H](C(=O)Nc2ncc(Br)s2)[C@@H]2CC[C@H]1C21CC1` (stereo partly drawn) [Example 417, (5R)—N^5-(5-Bromothiazol-2-yl)-(6R)—N^6-[(piperidin-2-yl)-methyl]-(4S,7R)-[4,7-ethylene-spiro[2.4]heptane]-5,6-dicarboxamide], the EC50 turned out to be 2.1 nM on human ALX receptor and 262 nM on human FPRL2.

As to `O=C(NCC1CCCNC1)[C@H]1[C@H](C(=O)Nc2ncc(Br)s2)[C@@H]2CC[C@H]1C21CC1` (stereo partly drawn) [Example 418, (5R)—N^5-(5-Bromothiazol-2-yl)-(6R)—N^6-[(piperidin-3-yl)-methyl]-(4S,7R)-[4,7-ethylene-spiro[2.4]heptane]-5,6-dicarboxamide], the EC50 at human ALX receptor is 0.45 nM; on human FPRL2 it was 339 nM.

For `O=C(NC1CNC1)[C@H]1[C@H](C(=O)Nc2ncc(Br)s2)[C@@H]2CC[C@H]1C21CC1` [Example 419, (5R)—N^5-(5-Bromothiazol-2-yl)-(6R)—N^6-(azetidin-3-yl)-(4S,7R)-[4,7-ethylene-spiro[2.4]heptane]-5,6-dicarboxamide], the figures for the EC50 on human ALX receptor and on human FPRL2 were 57 nM and 2290 nM, respectively.
